From US20260072027A1, “Peptides And Method” (Queen Mary University of London, priority 2022, published 2026)
Where no end group is shown, it is not given here.

How the values were obtained:
serum IgG autoantibodies = assay: ELISA for autoantibody detection: serum antibody binding to native and oxPTM insulin peptides; design: species or system human; details: for % binders, Healthy controls / Mean ± SEM (absorbance, OD), Healthy controls / % binders, Type 1 diabetes: Study cohort 1; for % binders, Type 1 diabetes: cut-off = mean of healthy controls to Nt-INSP plus 3 SEM; for Mean ± SEM (absorbance, OD), Type 1 diabetes: Study cohort 1 sera
Description: ELISA for autoantibody detection. The ELISA analysis of Nt-INS and oxPTM-INS autoantibodies was performed as previously described [18](detailed in ESM methods, ELISA assay for antibody detection).
Statistical analyses. Statistical analyses were performed using Prism Software 9.0 (GraphPad, San Diego, CA, USA). Cut-off points of positivity (binders) in the antibody ELISA for each peptide were defined by the mean of optical absorbance (O.D) of healthy controls to the corresponding Nt-INSP plus three times the standard error of the mean (SEM). Specificity and sensitivity were evaluated by receiver operating characteristic (ROC) curve analysis. Area under the curve (AUC) is reported as absolute value and was tested for equality according to DeLong et al. Differences in antibody levels and T-cell stimulation indices (SI) between groups were tested by the One way ANOVA or Student's t-tests as appropriate. Correlation analyses were tested by Pearson or Spearman's test, as appropriate. Categorical analyses were performed by Chi-square or McNemar's tests, as appropriate. For each set of experiments, p values were adjusted for multiple comparison using the Holm-Sidak's test. Hierarchical cluster and Principal Component Analysis (PCA) was done using Clustvis software (https://biit.cs.ut.ee/clustvis/) and Prism Software 9.0, respectively.
Antibody reactivity of type 1 diabetes serum against the candidate oxPTM-INSP. Identified peptide candidates were synthesised and exposed to either HOCl or ^●OH to generate oxPTM-INSPs that were first assessed by TOF-MS/ES+TIC to confirm modification (FIG. 17). Antibody response against native INSPs (Nt-INSPs) and oxPTM-INSPs was evaluated by ELISA using sera from Study cohort 1.
ESM Methods ELISA assay for antibody detection. The ELISA analysis of native (Nt-INS) and modified insulin (oxPTM-INS) was performed as previously described. Briefly, the ELISA plate was coated overnight at 4° C. with 100 μl per well of modified or native insulin in 0.05 M carbonate/bicarbonate buffer pH 9.6 at 10 μg/ml. The next day, the plates were washed 3 times with 0.1% Tween PBS, followed by blocking for 2 hours at room temperature with 200 μl per well of 5% BSA in 0.1% Tween PBS. After washing, 100 μl of 1:200-diluted serum samples in 5% BSA-0.1% Tween PBS were added for additional 2 hours incubation. ELISA plates were then washed 3 times with 0.1% Tween PBS followed by probing with anti-human IgG horse radish peroxidase conjugated (HRP, Sigma) at 1:1,000 dilution in 5% BSA-0.1% Tween PBS for another 1.5 hours incubation. The ELISA plates were washed, and 100 μg/ml TMB substrate in 0.1M sodium acetate pH 6.0 plus 2 μl/10 ml of H2O2, were added. Subsequently, the reaction was stopped with 20% v/v sulphuric acid. The optical density (O.D.) was measured at 450 nm using a GENios plate reader and Magellan software (TECAN, Dorset, UK).

[1] = tested on: autoantibodies to oxPTM-INS; assay: Competitive displacement ELISA, plate coated with oxidised insulin; type: binding, human; details: sera pre-incubated with peptide competitor
Description: A competitive displacement assay was performed to map the exact epitope, namely the exact amino acid sequence binding specificities and to test the binding to native peptides versus oxidised insulin peptides. The binding to the peptide was done by direct ELISA on the native or modified peptides or by competition ELISA. Initially native synthetic peptide was oxidised by exposing to 0.05 mM CuCl2; 90 mM H2O2; 10 mM NaOCl. Native and modified peptides were fractionated by AKTA to evaluated changes in molecular profile. AKTA fractions were then tested by ELISA for reactivity (FIGS. 2 and 3). We next perform competition ELISA with the native peptides and peptides exposed to 0.05 mM CuCl2; 90 mM H2O2; 10 mM NaOCl. Serum samples were pre-incubated with either native insulin peptides or oxidised insulin peptides. Finally, based on the amino acid sequence of the identified peptides we predicted the amino acids that would be oxidised by ^●OH and HOCl and designed synthetic peptides that contain the oxidised amino acids in the synthesis. Synthetic peptides were produced by standard commercially available methods, specifically by Peptide Protein Research Ltd. Briefly, peptide synthesis was performed by automated solid phase peptide synthesis (SPPS), which was followed by purification. Each individual amino acid was added to the growing chain according to the sequence. Where specified, dihydroxyphenylalanine was added to replace Tyr or cysteate were added to replace Cys. Similarly, these peptides were tested by competition ELISA. The table below describe the different competition ELISA performed:
Serum samples from children with type 1 diabetes were pre-incubated with the synthetic peptides before they were added to the native insulin or oxidised that were previously coated on the ELISA plate. If the antibodies in the serum sample bind to the peptide they will no longer bind to the insulin or oxidised insulin on the plate-competition ELISA. 1:200 dilutions of serum samples from T1D serum samples were pre-incubated for 2 hr at room temperature with the various peptides as shown in the table above. After incubation, serum/peptide mix was added to the ELISA plate previously coated overnight with either native insulin or oxidised insulin for an additional 2 hr incubation. Plates were then washed in a plate washer three times with PBS 0.05% tween. After washing, 100 ul of anti-human IgG diluted 1:1000 in 1% milk-PBS 0.05% tween were added for additional 1 hour and 30 min incubation. After washing, ELISA was developed by adding 100 ul of TMB (10 mg/ml in DMSO) in 10 ml of 0.1 M sodium acetate plus 2 ul of H2O2. Reaction was stopped by adding 0.5 M H2SO4 (usually 20 min for insulin ELISA).
To assess the binding specificity of serum samples to identified peptides, a competitive ELISA was performed. The ELISA was carried out following the method described above, except that the serum samples were pre-incubated for 2 h with and without 10 μg/ml peptides as competitors, before adding the serum samples to the insulin coated ELISA plate.

CD4+ T-cells (PBMCs) = assay: In vitro peptide stimulation and T-cell proliferation assay, CD4+; type: cell-based, human
Source text: (§1) In vitro peptide stimulation and T-cell proliferation assay. Peripheral blood mononuclear cells (PBMCs) were freshly isolated from type 1 diabetes and healthy individuals using Ficoll-Hypaque density gradient centrifugation. PBMCs were labelled with the fluorescent dye CellTrace Violet (Invitrogen, Thermo Fisher Scientific) and cultured (2×10^5 cells/well) in round-bottom 96-well plates (Falcon, Becton Dickinson) with RPMI-1640 medium (Gibco, Thermo Fisher Scientific) supplemented with 5% autologous plasma in the presence or not of insulin peptides (20 μg/ml); PPD (10 μg/ml) and anti-CD3 (0.1 μg/ml; clone OKT3) were used as positive control. Two scrambled peptides: […] (SEQ ID NO: 17), […] (SEQ ID NO: 18), and the Exendin 9-39 fragment were used as negative controls. After 7 days, PBMCs were stained with PE-Cy7 anti-CD8 (clone RPA-T8, BD Pharmingen) and FITC anti-CD3 (clone UCHT1, BD Pharmingen). Samples were analysed by using a FACSCanto II (BD Bioscience) to evaluate T-cell proliferation measured as CellTrace Violet dilution. Cytofluorimetric analyses were performed using FlowJo Software (FlowJo, LLC). The results were given as stimulation index (SI), calculated as percentage of stimulated T-cell subset proliferation/percentage of unstimulated T-cell subset proliferation. Assay for detection of peptide specific T cells subsets was done as previously described (detailed in ESM methods, Assay for detection of peptide specific T cells)
(§2) T-cell stimulation with oxPTM-INSPs. To evaluate the immune cell response against the oxPTM-INSPs, we performed CD4+ and CD8+ T cells proliferation experiments using freshly isolated PBMCs (Study cohort 2, Table 1). Response was calculated as stimulatory index (SI) over unstimulated T-cells.

CD8+ T-cells (PBMCs) = assay: In vitro peptide stimulation and T-cell proliferation assay, CD8+; type: cell-based, human
Source text: as §1, §2

Sequence: SLYQLENYCN (Ac-SLYQLENYCN) [insulin A:12-21 native peptide]
- % binders, Healthy controls (serum IgG autoantibodies; in house modifications): 19%
- Mean ± SEM (absorbance, OD), Healthy controls (serum IgG autoantibodies; in house modifications): 0.333 ± 0.030
- % binders, Type 1 diabetes (serum IgG autoantibodies; in house modifications): 42%
- % binders, Healthy controls (serum IgG autoantibodies; in silico modifications): 9%
- Mean ± SEM (absorbance, OD), Healthy controls (serum IgG autoantibodies; in silico modifications): 0.143 ± 0.007
- % binders, Type 1 diabetes (serum IgG autoantibodies; in silico modifications): 49%
- Mean ± SEM (absorbance, OD), Type 1 diabetes (serum IgG autoantibodies; in house modifications): 0.405 ± 0.029
- Mean ± SEM (absorbance, OD), Type 1 diabetes (serum IgG autoantibodies; in silico modifications): 0.242 ± 0.019
- inhibition of type 1 diabetes serum binding to oxPTM-INS (in words) [1]: not
- CD4+ T-cell response, subjects with SI > 1 (%) (CD4+ T-cells (PBMCs); Controls (N = 11)): (54.5%)
- CD4+ T-cell response, subjects with SI > 3 (%) (CD4+ T-cells (PBMCs); Controls (N = 11)): (18.2%)
- CD4+ T-cell response, subjects with SI > 5 (%) (CD4+ T-cells (PBMCs); Controls (N = 11)): (9.1%)
- CD4+ T-cell response, subjects with SI > 10 (%) (CD4+ T-cells (PBMCs); Controls (N = 11)): (0.0%)
- CD4+ T-cell response, subjects with SI > 1 (%) (CD4+ T-cells (PBMCs); Type 1 diabetes (N = 18)): (72.2%)
- CD4+ T-cell response, subjects with SI > 3 (%) (CD4+ T-cells (PBMCs); Type 1 diabetes (N = 18)): (27.8%)
- CD4+ T-cell response, subjects with SI > 5 (%) (CD4+ T-cells (PBMCs); Type 1 diabetes (N = 18)): (21.1%)
- CD4+ T-cell response, subjects with SI > 10 (%) (CD4+ T-cells (PBMCs); Type 1 diabetes (N = 18)): (16.7%)
- CD8+ T-cell response, subjects with SI > 1 (%) (CD8+ T-cells (PBMCs); Controls (N = 11)): (36.4%)
- CD8+ T-cell response, subjects with SI > 3 (%) (CD8+ T-cells (PBMCs); Controls (N = 11)): (36.4%)
- CD8+ T-cell response, subjects with SI > 5 (%) (CD8+ T-cells (PBMCs); Controls (N = 11)): (36.4%)
- CD8+ T-cell response, subjects with SI > 10 (%) (CD8+ T-cells (PBMCs); Controls (N = 11)): (18.2%)
- CD8+ T-cell response, subjects with SI > 1 (%) (CD8+ T-cells (PBMCs); Type 1 diabetes (N = 18)): (50.0%)
- CD8+ T-cell response, subjects with SI > 3 (%) (CD8+ T-cells (PBMCs); Type 1 diabetes (N = 18)): (22.2%)
- CD8+ T-cell response, subjects with SI > 5 (%) (CD8+ T-cells (PBMCs); Type 1 diabetes (N = 18)): (11.1%)
- CD8+ T-cell response, subjects with SI > 10 (%) (CD8+ T-cells (PBMCs); Type 1 diabetes (N = 18)): (5.6%)
